{"source": "paper PMC5952258", "about": "“Identification of a Mycothiol-Dependent Nitroreductase from Mycobacterium tuberculosis” (ACS Infectious Diseases, 2018)", "target": "Rv2466c (rRv2466c; Mrx-2) (Mycobacterium tuberculosis, UniProt O53193)", "sequence (O53193 whole entry)": "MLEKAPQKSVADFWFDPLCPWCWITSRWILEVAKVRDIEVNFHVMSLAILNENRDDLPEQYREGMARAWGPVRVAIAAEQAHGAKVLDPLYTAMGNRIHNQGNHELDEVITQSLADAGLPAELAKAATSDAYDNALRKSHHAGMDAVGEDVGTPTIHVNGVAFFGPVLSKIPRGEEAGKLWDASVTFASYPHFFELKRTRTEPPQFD"}
{"smiles": "CC(=O)N[C@@H](CSSC[C@H](NC(C)=O)C(=O)N[C@H]1[C@@H](O[C@@H]2[C@H](O)[C@H](O)[C@@H](O)[C@H](O)[C@H]2O)O[C@H](CO)[C@@H](O)[C@@H]1O)C(=O)N[C@H]1[C@@H](O[C@@H]2[C@H](O)[C@H](O)[C@@H](O)[C@H](O)[C@H]2O)O[C@H](CO)[C@@H](O)[C@@H]1O", "note": "[mycothione]", "values": [{"measurement": "melting temperature shift", "result": "MSSM also caused a significant shift in the melting temperature"}]}
